According to US5439816A, “Carboxymethylcellulase isolated from bacillus sp. PKM-5430 (FERM BP-4087)” (Kao Corporation, priority 1991, dated 1995):
Like-named read-outs stand apart in the source and are kept apart here.

What was measured:
[1] = tested on: Carboxymethylcellulase 5812; assay: Effects of chelating agents, thiol reagents, additives and proteinases on Carboxymethylcellulase 5812; type: biochemical, Bacillus sp. PKM-5812; settings: for Relative activity (%): none = 100; for stimulated the activity of the enzyme by: added at 1 mM
Procedure: (§1) Activities were determined by the DNS method (J. R. Summer and G. F. Somers, Laboratory Experiments in Biological Chemistry, Academic Press, New York, U.S.A., 1944). Namely, 0.1 ml of a suitably diluted enzyme solution was added to 0.9 ml of a 1.1% (w/v) solution of a CMC (A01MC) substrate in 0.1M glycine-NaOH buffer (pH: 9.0). After a 20-minute reaction at 40° C., 1 ml of 0.05% (w/v) 3,5-dinitrosalicylic acid solution (product of Wako Pure Chemical Industries, Ltd.) was added, and the resulting mixture was immediately placed in a boiling water bath for 5 minutes, followed by cooling in an iced water bath. Then, 4 ml of deionized water was added further, afterwhich, colorimetry was conducted by measuring an absorbance at 535 nm. With respect to enzymatic activity, the amount of enzyme, which liberates reducing sugars corresponding to 1 μmole of glucose for 1 minute, was defined as 1 unit.
(§2) On the other hand, 2-mercaptoethanol and dithiothreitol, each added at 1 mM, stimulated the activity of the enzyme by 52% and 84%, respectively. It was not observed that the proteinases such as alkalase, maxatase, savinase and Protease API-21 inactivated the enzyme of this invention under this reaction conditions.

[2] = tested on: Carboxymethylcellulase 5430; assay: Effects of chelating agents, thiol reagents, additives and proteinases on Carboxymethylcellulase 5430; type: biochemical, Bacillus sp. PKM-5430; settings: for Relative activity (%): none = 100; for stimulated the activity of the enzyme by: added at 1 mM
Procedure: as §1
as §2, with “39%” for “52%”, “50%,” for “84%,”

[3] = tested on: Carboxymethylcellulase 5430; type: biochemical, Bacillus sp. PKM-5430
Procedure: as §1
(§3) However, the activity of the enzyme was not inhibited by the other inhibitors.
(§4) *: The enzyme was pretreated at pH 5.5 (50 mM acetate buffer).

[4] = tested on: Carboxymethylcellulase 5812; type: biochemical, Bacillus sp. PKM-5812
Procedure: as §1, §3, §4

[5] = tested on: Carboxymethylcellulase 5812; assay: Effects of metal ions on carboxymethylcellulase activity of Carboxymethylcellulase 5812; type: biochemical, Bacillus sp. PKM-5812; settings: for Relative activity (%): 20 minutes at 40° C., pH 9.0, none = 100
Procedure: as §1
Among the various metal ions tested, Hg^2+, at 1 mM, inhibited the activity of the enzyme by about 75%. On the contrary, Co^+2, at 1 mM stimulated the activity of the enzyme by about 50%, and Mn^+2, at 1 mM, also stimulated the activity by 53%.

[6] = tested on: Carboxymethylcellulase 5430; assay: Effects of metal ions on carboxymethylcellulase activity of Carboxymethylcellulase 5430; type: biochemical, Bacillus sp. PKM-5430; settings: for Relative activity (%): 20 minutes at 40° C., pH 9.0, none = 100
Procedure: as §1
Among the various metal ions tested, Hg^2+, at 1 mM, inhibited the activity of the enzyme by about 75%. On the contrary, Co^+2, at 1 mM stimulated the activity of the enzyme by about 30% and Mn^+2, at 1 mM, also stimulated the activity by about 50%.

[7] = tested on: Carboxymethylcellulase 5812; assay: Substrate specificity of Carboxymethylcellulase 5812 (hydrolytic activities, DNS method / p-nitrophenol release); type: biochemical, Bacillus sp. PKM-5812
Procedure: as §1
(§5) Sodium hydroxide- and phosphoric acid-swollen celluloses were prepared according to the method of Tomita et al. [Y. Tomita, H. Suzuki and K. Nisizawa, J. Biochem., 78, 499(1975)]. The reducing sugar liberated was determined in a similar manner to that of the method (a) except that substrate solutions containing cellulose substrates were used, and the reaction was conducted at 30° C.
(§6) The reducing sugar liberated was determined in a similar manner to that of the method (a) except that substrate solutions containing polysaccharides were used, and the reaction was conducted at 30° C.
(§7) A suitably diluted enzyme solution was added to a solution of 8 mM of a PNPG or PNPC substrate in 0.1M phosphate buffer of pH 7.0 to react them for 20 minutes at 30° C. The p-nitrophenol liberated was determined at 400 nm and the amount formed was calculated.
(§8) The enzyme is also active toward cellobiose, PNPG, PNPC, cellulose powder and phosphoric acid-swollen cellulose.

[8] = tested on: Carboxymethylcellulase 5430; assay: Substrate specificity of Carboxymethylcellulase 5430 (hydrolytic activities, DNS method / p-nitrophenol release); type: biochemical, Bacillus sp. PKM-5430
Procedure: as §1, §5, §6, §7, §8

[9] = tested on: Carboxymethylcellulase 5430; assay: Effects of surfactants on carboxymethylcellulase activity of Carboxymethylcellulase 5430; type: biochemical, Bacillus sp. PKM-5430; settings: for Relative activity (%): surfactant 0.05%, 20 minutes at 40° C., pH 9.0, none = 100
Procedure: as §1
In particular, SDS and the fatty acid salt stimulated the activity of the enzyme by 26% and 45%, respectively.

[10] = tested on: Carboxymethylcellulase 5812; assay: Effects of surfactants on carboxymethylcellulase activity of Carboxymethylcellulase 5812; type: biochemical, Bacillus sp. PKM-5812; settings: for Relative activity (%): surfactant 0.05%, 20 minutes at 40° C., pH 9.0, none = 100
Procedure: as §1
In particular, SDS and the fatty acid salt stimulated the activity of the enzyme by 21% and 23%, respectively.

[11] = reagent 1 mM, 20 minutes at 40° C., pH 9.0
[12] = inhibitor 0.1 mM, enzyme pretreated at pH 5.5 (50 mM acetate buffer), none = 100
[13] = inhibitor 1.0 mM, 20 minutes at 40° C., pH 9.0, none = 100
[14] = substrate 0.1%, activity toward CMC at 30° C. taken as 100%
[15] = substrate 8 mM, 0.1M phosphate buffer pH 7.0, 30° C., activity toward CMC taken as 100%
[16] = metal ion 1 mM, listed as Fe^3+
[17] = reagent 0.01%, 20 minutes at 40° C., pH 9.0

## O=C(O)CN(CCOCCOCCN(CC(=O)O)CC(=O)O)CC(=O)O [EGTA]
[1]
  effect of chelating agents on enzyme activity: somewhat inhibited
[1]; [11]
  Relative activity (%): 73%
[2]
  effect of chelating agents on enzyme activity: somewhat inhibited
[2]; [11]
  Relative activity (%): 66%

## O=C1CCC(=O)N1Br [N-Bromosuccinimide]
[3]
  inhibited the activity of this enzyme by: 97%
[3]; [12]
  Relative activity (%): 4%
[4]
  inhibited the activity of this enzyme by: 97%
[4]; [12]
  Relative activity (%): 3%

## [Co+2] [Co^2+]
[5]; at 1 mM
  stimulated the activity of the enzyme by: about 50%
[5]; metal ion 1 mM
  Relative activity (%): 150%
[6]; at 1 mM
  stimulated the activity of the enzyme by: about 30%
[6]; metal ion 1 mM
  Relative activity (%): 149%

## [Mn+2] [Mn^2+]
[5]; at 1 mM
  stimulated the activity of the enzyme by: 53%
[5]; metal ion 1 mM
  Relative activity (%): 153%
[6]; at 1 mM
  stimulated the activity of the enzyme by: about 50%
[6]; metal ion 1 mM
  Relative activity (%): 130%

## O=C(O)CN(CCN(CC(=O)O)CC(=O)O)CC(=O)O [EDTA]
[1]
  effect of chelating agents on enzyme activity: somewhat inhibited
[1]; [11]
  Relative activity (%): 79%
[2]
  effect of chelating agents on enzyme activity: somewhat inhibited
[2]; [11]
  Relative activity (%): 71%

## Cl.NO [Hydroxylamine hydrochloride]
[3]; [13]
  Relative activity (%): 133%
[4]; [13]
  Relative activity (%): 123%

## O=C(O)CI [Monoiodo acetic acid]
[3]; pH 9
  Relative activity (%): 117%
[4]; pH 9
  Relative activity (%): 104%

## c1cnc2c(c1)ccc1cccnc12 [o-Phenanthroline]
[1]; [11]
  Relative activity (%): 100%
[2]; [11]
  Relative activity (%): 98%

## [Al+3] [Al^3+]
[5]; metal ion 1 mM
  Relative activity (%): 97%
[6]; metal ion 1 mM
  Relative activity (%): 101%

## [N-]=[N+]=[N-] [Sodium azide]
[3]; [13]
  Relative activity (%): 118%
[4]; [13]
  Relative activity (%): 117%

## OC[C@H]1O[C@@H](O[C@H]2[C@H](O)[C@@H](O)C(O)O[C@@H]2CO)[C@H](O)[C@@H](O)[C@@H]1O (stereo partly shown) [Cellobiose]
[7]
  activity of the enzyme toward substrate: active
[7]; [14]
  Relative activity (%): 0.4%
[8]
  activity of the enzyme toward substrate: active
[8]; [14]
  Relative activity (%): 0.4%

## [Pb+2] [Pb^2+]
[5]; metal ion 1 mM
  Relative activity (%): 93%
[6]; metal ion 1 mM
  Relative activity (%): 81%

## [Na+] [Na^+]
[5]; metal ion 50 mM
  Relative activity (%): 120%
[6]; metal ion 50 mM
  Relative activity (%): 121%

## [Cu+2] [Cu^2+]
[5]; metal ion 1 mM
  Relative activity (%): 98%
[6]; metal ion 1 mM
  Relative activity (%): 97%

## [Ca+2] [Ca^2+]
[5]; metal ion 1 mM
  Relative activity (%): 108%
[6]; metal ion 1 mM
  Relative activity (%): 108%

## O=[N+]([O-])c1ccc(O[C@@H]2O[C@H](CO)[C@@H](O[C@@H]3O[C@H](CO)[C@@H](O)[C@H](O)[C@H]3O)[C@H](O)[C@H]2O)cc1 [PNPC, p-nitrophenyl-β-D-cellobioside]
[7]
  activity of the enzyme toward substrate: active
[7]; [15]
  Relative activity (%): 0.6%
[8]
  activity of the enzyme toward substrate: active
[8]; [15]
  Relative activity (%): 1.0%

## [Fe+2] [Fe^2+]
[5]; metal ion 1 mM
  Relative activity (%): 101%
[5]; [16]
  Relative activity (%): 104%
[6]; metal ion 1 mM
  Relative activity (%): 105%
[6]; [16]
  Relative activity (%): 110%

## [Hg+2] [Hg^2+]
[5]; at 1 mM
  inhibited the activity of the enzyme by: about 75%
[5]; metal ion 1 mM
  Relative activity (%): 27%
[6]; at 1 mM
  inhibited the activity of the enzyme by: about 75%
[6]; metal ion 1 mM
  Relative activity (%): 25%

## [Mg+2] [Mg^2+]
[5]; metal ion 1 mM
  Relative activity (%): 109%
[6]; metal ion 1 mM
  Relative activity (%): 108%

## sodium alkyl sulfate [AS]
[9]
  effect of surfactants on enzyme activity: either scarcely inhibited or stimulated
  Relative activity (%): 123%
[10]
  effect of surfactants on enzyme activity: either scarcely inhibited or stimulated
  Relative activity (%): 112%

## O[C@H](CS)[C@H](O)CS (racemic) [Dithiothreitol]
[1]
  stimulated the activity of the enzyme by: 84%
[1]; [11]
  Relative activity (%): 184%
[2]
  stimulated the activity of the enzyme by: 50%
[2]; [11]
  Relative activity (%): 150%

## CCCCCCCCCCCCOS(=O)(=O)[O-].[Na+] [SDS, sodium dodecyl sulfate]
[9]
  effect of surfactants on enzyme activity: either scarcely inhibited or stimulated
  stimulated the activity of the enzyme by: 26%
  Relative activity (%): 126%
[10]
  effect of surfactants on enzyme activity: either scarcely inhibited or stimulated
  stimulated the activity of the enzyme by: 21%
  Relative activity (%): 121%

## OCCS [2-Mercaptoethanol]
[1]
  stimulated the activity of the enzyme by: 52%
[1]; [11]
  Relative activity (%): 152%
[2]
  stimulated the activity of the enzyme by: 39%
[2]; [11]
  Relative activity (%): 139%

## O=S(=O)(F)Cc1ccccc1 [Phenylmethanesulfonyl fluoride, phenylmethanesulfonyl fluoride]
[3]
  inhibited the activity of this enzyme by: 24%
[3]; [13]
  Relative activity (%): 76%
[4]; [13]
  Relative activity (%): 107%

## sodium α-olefin sulfonate [AOS]
[9]
  effect of surfactants on enzyme activity: either scarcely inhibited or stimulated
  Relative activity (%): 107%
[10]
  effect of surfactants on enzyme activity: either scarcely inhibited or stimulated
  Relative activity (%): 105%

## sodium α-sulfonated fatty acid ester [α-SFE]
[9]
  effect of surfactants on enzyme activity: either scarcely inhibited or stimulated
  Relative activity (%): 116%
[10]
  effect of surfactants on enzyme activity: either scarcely inhibited or stimulated
  Relative activity (%): 97%

## O=C(O)c1cc[c]([Hg][Cl])cc1 [4-Chloromercuribenzoic acid]
[3]; [13]
  Relative activity (%): 118%
[4]; [13]
  Relative activity (%): 105%

## sodium linear alkylbenzenesulfonate [LAS]
[9]
  effect of surfactants on enzyme activity: either scarcely inhibited or stimulated
  Relative activity (%): 105%
[10]
  effect of surfactants on enzyme activity: either scarcely inhibited or stimulated
  Relative activity (%): 96%

## [K+] [K^+]
[5]; metal ion 50 mM
  Relative activity (%): 126%
[6]; metal ion 50 mM
  Relative activity (%): 116%

## [Zn+2] [Zn^2+]
[5]; metal ion 1 mM
  Relative activity (%): 96%
[6]; metal ion 1 mM
  Relative activity (%): 92%

## sodium polyoxyethylene alkyl sulfate [ES]
[9]
  effect of surfactants on enzyme activity: either scarcely inhibited or stimulated
  Relative activity (%): 102%
[10]
  effect of surfactants on enzyme activity: either scarcely inhibited or stimulated
  Relative activity (%): 112%

B1: Alkalase: proteinase (protein, UniProt P00780 106-379, looked up)
Subtilisin Carlsberg: AQTVPYGIPLIKADKVQAQGFKGANVKVAVLDTGIQASHPDLNVVGGASFVAGEAYNTDGNGHGTHVAGTVAALDNTTGVLGVAPSVSLYAVKVLNSSGSGSYSGIVSGIEWATTNGMDVINMSLGGASGSTAMKQAVDNAYAKGVVVVAAAGNSGSSGNTNTIGYPAKYDSVIAVGAVDSNSNRASFSSVGAELEVMAPGAGVYSTYPTNTYATLNGTSMASPHVAGAAALILSKHPNLSASQVRNRLSSTATYLGSSFYYGKGLINVEAAAQ
[1]; 20 minutes at 40° C., pH 9.0
  inactivation of the enzyme by proteinases: not observed
[1]; [17]
  Relative activity (%): 107%
[2]; 20 minutes at 40° C., pH 9.0
  inactivation of the enzyme by proteinases: not observed
[2]; [17]
  Relative activity (%): 111%
